Assay results: patent publication US4001272A, “Herbicidal 2-fluoro-4-halo-phenyl-4,5,6,7-tetrahydro-2H-isoindole-1,3-diones” (E. I. Du Pont de Nemours and Company, priority 1974, dated 1977)

What was measured:
Type in all cases: in vivo
[1] = tested on: crabgrass (Digitaria sanquinalis); test: Test B: overall spray in carrot field after weed emergence, percent control of crabgrass; conditions: six weeks after treatment, 0.1% Tween 20
Excerpt: (§1) Test B involved a field sown to carrots and in which the following weed species emerged naturally: crabgrass (Digitaria sanquinalis), foxtails (Setaria spp.), barnyardgrass (Echinochloa crusgalli), pigweed (Amaranthus spp.), ragweed (Ambrosia artemisiifolia), velvetleaf (Abutilon theophrasti), smartweed (Polygonum spp.) and lambsquarters (Chenopodium album). Sixteen days after sowing, when all species of weeds had emerged, the plants were sprayed overall with a 50% wettable powder formulation of 2-(4-chloro-2-fluorophenyl)4,5,6,7-tetrahydro-2H-isoindole-1,3dione (Treatment I) in the form of an aqueous suspension, at rates of 0.5, 1.0, 2.0 and 4.0 kg/ha, and with 2-(4-chlorophenyl)-4,5,6,7-tetrahydro-2H-isoindole-1,3-dione (Treatment II) in the same form and at the same rates. The spray volume was 425 l/ha. The surfactant Tween 20* was added to all treatments in a concentration of 0.1% by weight. Six weeks after treatment, visual observations were made of percent weed control obtained and, for carrots, crop response.
(§2) *Tween 20 -- A trademark of ICI of America which is the reaction product of sorbitan monolaurate with an average of 20 moles of ethylene oxide.

[2] = tested on: ragweed (Ambrosia artemisiifolia); test: Test B: overall spray in carrot field after weed emergence, percent control of ragweed; conditions: six weeks after treatment, 0.1% Tween 20
Excerpt: as §1, §2

[3] = tested on: velvetleaf (Abutilon theophrasti); test: Test B: overall spray in carrot field after weed emergence, percent control of velvetleaf; conditions: six weeks after treatment, 0.1% Tween 20
Excerpt: as §1, §2

[4] = tested on: smartweed (Polygonum spp.); test: Test B: overall spray in carrot field after weed emergence, percent control of smartweed; conditions: six weeks after treatment, 0.1% Tween 20
Excerpt: as §1, §2

[5] = tested on: lambsquarters (Chenopodium album); test: Test B: overall spray in carrot field after weed emergence, percent control of lambsquarters; conditions: six weeks after treatment, 0.1% Tween 20
Excerpt: as §1, §2

[6] = tested on: foxtail (Setaria spp.); test: Test C: preemergence weed control in rice, foxtail; conditions: 29 days after treatment
Excerpt: (§3) In test A, soybeans, peanuts, lima beans, green beans and squash were planted in a field infested with the following weed seeds: crabgrass (Digitaria sanquinalis), foxtails (Setaria spp.), barnyardgrass (Echinochloa crusgalli), pigweed (Amaranthus spp.), ragweed (Ambrosia artemisiifolia), velvetleaf (Abutilon theophrasti), purslane (Portulaca oleracea) and flower-of-an-hour (Hibiscus trionum). A 50% wettable powder formulation of 2-(4-chloro-2-fluorophenyl)-4,5,6,7-tetrahydro-2H-isoindole-1,3-dione was applied in the form of an aqueous suspension at rates of 0.125, 0.25, 0.5 and 1.0 kg/ha, each treatment replicated twice. The plots were rated for percent weed control and crop response seven weeks after treatment. Crop response was expressed on a scale of 0 = no injury to 10 = complete kill.
(§4) Test C concerned preemergence weed control in rice. The field selected contained seeds of the following weed species: crabgrass (Digitaria sanquinalis), foxtail (Setaria spp.), barnyardgrass (Echinochloa crusgalli), pigweed (Amaranthus spp.), ragweed (Ambrosia artemisiifolia), velvetleaf (Abutilon theophrasti), purslane (Portulaca oleracea) and flower-of-an-hour (Hibiscus trionum). Two varieties of rice, CSM-3 and Nato, were planted at depths of both 1 and 2 cm. In addition, rice seedlings of both varieties were transplanted into the field to be treated. Immediately thereafter, the plot was treated with an aqueous suspension of 2-(4-chloro-2-fluorophenyl)-4,5,6,7-tetrahydro-2H-isoindole-1,3-dione (Treatment I) at rates of 0.125 and 0.25 kg/ha, and an aqueous suspension of 2-(4-chlorophenyl)-4,5,6,7-tetrahydro-2H-isoindole-1,3dione (Treatment II) at rates of 0.25, 0.50, 1.00 and 2.00 kg/ha. The test chemicals had been formulated as 50% wettable powders. Overall spray volume was 540 l/ha. Ratings of percent weed control obtained and crop response were made 29 days after treatment, as described for test A. The ratings are summarized in the following Table III.

[7] = tested on: ragweed (Ambrosia artemisiifolia); test: Test C: preemergence weed control in rice, ragweed; conditions: 29 days after treatment
Excerpt: as §3, §4

[8] = tested on: purslane (Portulaca oleracea); test: Test C: preemergence weed control in rice, purslane; conditions: 29 days after treatment
Excerpt: as §3, §4

[9] = tested on: flower-of-an-hour (Hibiscus trionum); test: Test C: preemergence weed control in rice, flower-of-an-hour; conditions: 29 days after treatment
Excerpt: as §3, §4

[10] = tested on: rice, variety CSM-3; test: Test C: crop response of rice CSM-3; conditions: 29 days, 0 = no injury to 10 = complete kill; for Crop Response, Rice CSM-3, 1 cm: planting depth 1 cm; for Crop Response, Rice CSM-3, 2 cm: planting depth 2 cm; for Crop Response, Rice CSM-3, T: transplanted
Excerpt: (§5) In test A, soybeans, peanuts, lima beans, green beans and squash were planted in a field infested with the following weed seeds: crabgrass (Digitaria sanquinalis), foxtails (Setaria spp.), barnyardgrass (Echinochloa crusgalli), pigweed (Amaranthus spp.), ragweed (Ambrosia artemisiifolia), velvetleaf (Abutilon theophrasti), purslane (Portulaca oleracea) and flower-of-an-hour (Hibiscus trionum). […] The plots were rated for percent weed control and crop response seven weeks after treatment. Crop response was expressed on a scale of 0 = no injury to 10 = complete kill.
(§6) Test C concerned preemergence weed control in rice. The field selected contained seeds of the following weed species: crabgrass (Digitaria sanquinalis), foxtail (Setaria spp.), barnyardgrass (Echinochloa crusgalli), pigweed (Amaranthus spp.), ragweed (Ambrosia artemisiifolia), velvetleaf (Abutilon theophrasti), purslane (Portulaca oleracea) and flower-of-an-hour (Hibiscus trionum). Two varieties of rice, CSM-3 and Nato, were planted at depths of both 1 and 2 cm. In addition, rice seedlings of both varieties were transplanted into the field to be treated. […] The test chemicals had been formulated as 50% wettable powders. Overall spray volume was 540 l/ha.

[11] = tested on: rice, variety Nato; test: Test C: crop response of rice Nato; conditions: 29 days, 0 = no injury to 10 = complete kill; for Crop Response, Rice Nato, 1 cm: planting depth 1 cm; for Crop Response, Rice Nato, 2 cm: planting depth 2 cm; for Crop Response, Rice Nato, T: transplanted
Excerpt: as §5, §6

`O=C1C2=C(CCCC2)C(=O)N1c1ccc(Cl)cc1F` [Treatment I, 2-(4-chloro-2-fluorophenyl)-4,5,6,7-tetrahydro-2H-isoindole-1,3-dione] was tested, and the “% Control, Crabgrass” value ([1]; 0.5 kg/ha) was 60%, the “% Control, Crabgrass” value ([1]; 1.0 kg/ha) was 85% and the “% Control, Crabgrass” value ([1]; 2.0 kg/ha) was 90%. The “% Control, Crabgrass” value ([1]; 4.0 kg/ha) was 100%, the “% Control, Ragweed” value ([2]; 0.5 kg/ha) was 98% and the “% Control, Ragweed” value ([2]; 1.0 kg/ha) was > 99%. For the same compound, the “% Control, Ragweed” value ([2]; 2.0 kg/ha) was 100%, the “% Control, Ragweed” value ([2]; 4.0 kg/ha) was 100% and the “% Control, Velvetleaf” value ([3]; 0.5 kg/ha) was 100%. For the same compound, the “% Control, Velvetleaf” value ([3]; 1.0 kg/ha) was 100%, the “% Control, Velvetleaf” value ([3]; 2.0 kg/ha) was 100% and the “% Control, Velvetleaf” value ([3]; 4.0 kg/ha) was 100%. For the same compound, the “% Control, Smartweed” value ([4]; 0.5 kg/ha) was > 99%, the “% Control, Smartweed” value ([4]; 1.0 kg/ha) was 100% and the “% Control, Smartweed” value ([4]; 2.0 kg/ha) was 100%. For the same compound, the “% Control, Smartweed” value ([4]; 4.0 kg/ha) was 100%, the “% Control, Lambsquarters” value ([5]; 0.5 kg/ha) was 100% and the “% Control, Lambsquarters” value ([5]; 1.0 kg/ha) was 100%. For the same compound, the “% Control, Lambsquarters” value ([5]; 2.0 kg/ha) was 100%, the “% Control, Lambsquarters” value ([5]; 4.0 kg/ha) was 100% and the “% Control, Foxtail” value ([6]; 0.125 kg/ha) was 96%. For the same compound, the “% Control, Foxtail” value ([6]; 0.25 kg/ha) was 100%, the “% Control, Ragweed” value ([7]; 0.125 kg/ha) was 100% and the “% Control, Ragweed” value ([7]; 0.25 kg/ha) was 100%. For the same compound, the “% Control, Purslane” value ([8]; 0.125 kg/ha) was 100%, the “% Control, Purslane” value ([8]; 0.25 kg/ha) was 100% and the “% Control, Flower-of-an-Hour” value ([9]; 0.125 kg/ha) was 100%. For the same compound, the “% Control, Flower-of-an-Hour” value ([9]; 0.25 kg/ha) was 100%, the “Crop Response, Rice CSM-3, 1 cm” value ([10]; 0.125 kg/ha) was 3 and the “Crop Response, Rice CSM-3, 2 cm” value ([10]; 0.125 kg/ha) was 0. The “Crop Response, Rice CSM-3, T” value ([10]; 0.125 kg/ha) was 0, the “Crop Response, Rice CSM-3, 1 cm” value ([10]; 0.25 kg/ha) was 5 and the “Crop Response, Rice CSM-3, 2 cm” value ([10]; 0.25 kg/ha) was 1. For the same compound, the “Crop Response, Rice CSM-3, T” value ([10]; 0.25 kg/ha) was 0, the “Crop Response, Rice Nato, 1 cm” value ([11]; 0.125 kg/ha) was 3 and the “Crop Response, Rice Nato, 2 cm” value ([11]; 0.125 kg/ha) was 1. The “Crop Response, Rice Nato, T” value ([11]; 0.125 kg/ha) was 0, the “Crop Response, Rice Nato, 1 cm” value ([11]; 0.25 kg/ha) was 6 and the “Crop Response, Rice Nato, 2 cm” value ([11]; 0.25 kg/ha) was 2. The “Crop Response, Rice Nato, T” value ([11]; 0.25 kg/ha) was 0.
